Laboratory results as given in patent publication US20250230193A1, “CYCLIC COMPOUND HAVING SELECTIVE KRAS INHIBITORY EFFECT ON HRAS AND NRAS” (CHUGAI SEIYAKU KABUSHIKI KAISHA, priority 2022, published 2025).

Legend:
[1] = biological target: GDP-bound HRAS wild-type protein (Homo sapiens, UniProt P01112); assay: Binding to HRAS by surface plasmon resonance (SPR), Single Cycle Kinetics; conditions: KD ratio HRAS/KRAS, class symbols
[2] = biological target: GDP-bound NRAS wild-type protein (Homo sapiens, UniProt P01111); assay: Binding to NRAS by surface plasmon resonance (SPR), Single Cycle Kinetics; conditions: KD ratio NRAS/KRAS, class symbols
Sequence of GDP-bound NRAS wild-type protein (P01111 whole entry): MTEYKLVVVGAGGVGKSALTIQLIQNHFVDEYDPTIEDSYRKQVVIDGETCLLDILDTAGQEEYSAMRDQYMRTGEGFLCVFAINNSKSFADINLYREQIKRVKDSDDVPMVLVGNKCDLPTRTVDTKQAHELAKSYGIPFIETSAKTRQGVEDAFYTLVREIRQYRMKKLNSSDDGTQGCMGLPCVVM

Sequence of GDP-bound HRAS wild-type protein (P01112 whole entry): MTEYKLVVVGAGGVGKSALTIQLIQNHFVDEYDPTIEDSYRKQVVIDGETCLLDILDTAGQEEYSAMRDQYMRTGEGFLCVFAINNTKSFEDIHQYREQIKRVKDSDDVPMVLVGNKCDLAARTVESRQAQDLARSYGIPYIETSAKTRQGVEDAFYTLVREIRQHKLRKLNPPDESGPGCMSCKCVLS

Row | SMILES | HRAS/KRAS (ratio of KD value with respect to GDP-bound HRAS wild-type protein to KD value with respect to KRAS) [1] | NRAS/KRAS (ratio of KD value with respect to GDP-bound NRAS wild-type protein to KD value with respect to KRAS) [2]
1 | CCO[C@@H]1C[C@H]2C(=O)NC3(CC(C)(C)C3)C(=O)N(C)[C@@H](C3CCCC3)C(=O)N(C)[C@H](C(=O)N(C)C)CC(=O)N(C)[C@@H](COC)C(=O)N[C@@H]([C@@H](C)CC)C(=O)N(C3CC3)CC(=O)N(C)[C@H]3C/C=C\CCN(C3=O)[C@@H](CC3CCCCC3)C(=O)N(C)CC(=O)N[C@@H](CCc3ccc(Cl)c(Cl)c3)C(=O)N2C1 [PP2563] | A (a compound having 10 or more and less than 20 is denoted as A) | A (a compound having 10 or more and less than 20 is denoted as A)
2 | CCO[C@@H]1C[C@H]2C(=O)NC3(CC(C)(C)C3)C(=O)N(C)[C@@H](C(CC)CC)C(=O)N(C)[C@H](C(=O)N(C)C)CC(=O)N(C)[C@@H](COC)C(=O)N[C@@H]([C@@H](C)CC)C(=O)N(C3CC3)CC(=O)N(C)[C@H]3C/C=C\CCN(C3=O)[C@@H](CC3CCCCC3)C(=O)N(C)CC(=O)N[C@@H](CCc3cc(F)c(C(F)(F)F)c(F)c3)C(=O)N2C1 [PP2564] | A (a compound having 10 or more and less than 20 is denoted as A) | A (a compound having 10 or more and less than 20 is denoted as A)
3 | CCC[C@H]1C(=O)N[C@@H]([C@@H](C)CC)C(=O)N(C2CC2)CC(=O)N(C)[C@H]2C/C=C\CCN(C2=O)[C@@H](CC2CCC(F)(F)CC2)C(=O)N(C)CC(=O)N[C@@H](CCc2cc(F)c(C(F)(F)F)c(F)c2)C(=O)N2C[C@H](OCC)C[C@H]2C(=O)NC2(CC(C)(C)C2)C(=O)N(C)[C@@H](C2CCCC2)C(=O)N(C)[C@H](C(=O)N(C)C)CC(=O)N1C [PP2566] | B (a compound having 3 or more and less than 10 is denoted as B) | A (a compound having 10 or more and less than 20 is denoted as A)
4 | CCC[C@H]1C(=O)N[C@@H]([C@@H](C)CC)C(=O)N(C2CC2)CC(=O)N(C)[C@H]2C/C=C\CCN(C2=O)[C@@H](CC2CCC(F)(F)CC2)C(=O)N(C)CC(=O)N[C@@H](CCc2ccc(Cl)c(Cl)c2)C(=O)N2C[C@H](OCC)C[C@H]2C(=O)NC2(CC(C)(C)C2)C(=O)N(C)[C@@H](C2CCCC2)C(=O)N(C)[C@H](C(=O)N(C)C)CC(=O)N1C [PP2567] | A (a compound having 10 or more and less than 20 is denoted as A) | A (a compound having 10 or more and less than 20 is denoted as A)
5 | CCO[C@@H]1C[C@H]2C(=O)NC3(CC(C)(C)C3)C(=O)N(C)[C@@H](C(CC)CC)C(=O)N(C)[C@H](C(=O)N(C)C)CC(=O)N(C)[C@@H](COC)C(=O)N[C@@H]([C@@H](C)CC)C(=O)N(C3CC3)CC(=O)N(C)[C@H]3C/C=C\CCN(C3=O)[C@@H](CC3CCC(F)(F)CC3)C(=O)N(C)CC(=O)N[C@@H](CCc3cc(F)c(C(F)(F)F)c(F)c3)C(=O)N2C1 [PP2568] | B (a compound having 3 or more and less than 10 is denoted as B) | A (a compound having 10 or more and less than 20 is denoted as A)
6 | CCO[C@@H]1C[C@H]2C(=O)NC3(CC(C)(C)C3)C(=O)N(C)[C@@H](C(CC)CC)C(=O)N(C)[C@H](C(=O)N(C)C)CC(=O)N(C)[C@@H](COC)C(=O)N[C@@H]([C@@H](C)CC)C(=O)N(C3CC3)CC(=O)N(C)[C@H]3C/C=C\CCN(C3=O)[C@@H](CC3CCC(F)(F)CC3)C(=O)N(C)CC(=O)N[C@@H](CCc3ccc(Cl)c(Cl)c3)C(=O)N2C1 [PP2569] | A (a compound having 10 or more and less than 20 is denoted as A) | AA (a compound having 20 or more is denoted as AA)
7 | CCC[C@H]1C(=O)N[C@@H]([C@@H](C)CC)C(=O)N(C2CC2)CC(=O)N(C)[C@H]2C/C=C\CCN(C2=O)[C@@H](Cc2ccc(C)cc2)C(=O)N(C)CC(=O)N[C@@H](CCc2cc(F)c(C(F)(F)F)c(F)c2)C(=O)N2C[C@H](OC(C)C)C[C@H]2C(=O)NC2(CC(C)(C)C2)C(=O)N(C)[C@@H](C2CCCC2)C(=O)N(C)[C@H](C(=O)N(C)C)CC(=O)N1C [PP2570] | A (a compound having 10 or more and less than 20 is denoted as A) | A (a compound having 10 or more and less than 20 is denoted as A)
8 | CCC[C@H]1C(=O)N[C@@H]([C@@H](C)CC)C(=O)N(C2CC2)CC(=O)N(C)[C@H]2C/C=C\CCN(C2=O)[C@@H](Cc2ccc(C)cc2)C(=O)N(C)CC(=O)N[C@@H](CCc2ccc(Cl)c(Cl)c2)C(=O)N2C[C@H](OC(C)C)C[C@H]2C(=O)NC2(CC(C)(C)C2)C(=O)N(C)[C@@H](C2CCCC2)C(=O)N(C)[C@H](C(=O)N(C)C)CC(=O)N1C [PP2571] | A (a compound having 10 or more and less than 20 is denoted as A) | A (a compound having 10 or more and less than 20 is denoted as A)
9 | CCC(CC)[C@H]1C(=O)N(C)[C@H](C(=O)N(C)C)CC(=O)N(C)[C@@H](COC)C(=O)N[C@@H]([C@@H](C)CC)C(=O)N(C2CC2)CC(=O)N(C)[C@H]2C/C=C\CCN(C2=O)[C@@H](Cc2ccc(C)cc2)C(=O)N(C)CC(=O)N[C@@H](CCc2cc(F)c(C(F)(F)F)c(F)c2)C(=O)N2C[C@H](OC(C)C)C[C@H]2C(=O)NC2(CC(C)(C)C2)C(=O)N1C [PP2572] | A (a compound having 10 or more and less than 20 is denoted as A) | A (a compound having 10 or more and less than 20 is denoted as A)
10 | CCO[C@@H]1C[C@H]2C(=O)NC3(CC(C)(C)C3)C(=O)N(C)[C@@H](C3CCCC3)C(=O)N(C)[C@H](C(=O)N3CCCCC3)CC(=O)N(C)[C@H]3CCC/C=C/c4ccc(cc4)C[C@@H](C(=O)N(C)CC(=O)N[C@@H](CCc4cc(F)c(C(F)(F)F)c(F)c4)C(=O)N2C1)N1CC/C=C\C[C@@H](C1=O)N(C)C(=O)CN(C)C(=O)[C@H]([C@@H](C)CC)NC3=O [PP2573] | A (a compound having 10 or more and less than 20 is denoted as A) | A (a compound having 10 or more and less than 20 is denoted as A)
